{"source": "patent US20130344106A1", "about": "“Methods and Compositions for Improving Immune Response by a Nutraceutical Antioxidant” (priority 2008, published 2013)", "key": {"[1]": {"tested_on": "old female C57BL/6 (B6) mice", "details": "SFN gavage", "text": "(§1) Young (2-4 months) and old (19-22 mouths) female C57BL/6 (B6) mice were obtained from the Jackson Laboratory and the National Institute of Aging colony (Bethesda, Md.), respectively. Nrf2^+/+ and nrf2^−/− mice, which were initially obtained from Dr. Y. Kan (Chan and Kan, Proc Natl Acad Sci USA, 96:1231-6 (1997)), were backcrossed onto a C57BL/6 background for 7 generations.\nOxazalone (OXA; 3%), dissolved in 100% ethanol, was applied on the shaved mouse abdomen on day 0. Control animals were exposed to vehicle alone. Six days after sensitization, mice were challenged on both sides of both ears by means of epicutaneous application of 20 μL of a 1% OXA solution (Gaspari and Katz, Current Protocols in immunology, John Wiley & Sons (Hoboken, N.J., 2003)). 2,4-Dinitro-1-fluambenzene (DNFB) sensitization was accomplished by the application of 0.5% of the chemical dissolved in 4:1 acetone/olive oil onto the shaved abdomen (days 0 and 1). On day 5, mice were challenged by means of epicutaneous application of 0.2% DNFB on both ears. Ear thickness was measured before and 24 and 48 hours after challenge by using a dial thickness gauge (Mitutoyo, Japan). Mice were killed 48 hours after challenge, and ear tissues were removed for RNA extraction and cytokine message expression, as well as for hematoxylin and eosin staining. […]"}, "IFN-γ mRNA": {"tested_on": "IFN-γ mRNA", "details": "old mice; SFN gavage; 48 hours after DNFB challenge", "description": "(§2) Oxazalone (OXA; 3%), dissolved in 100% ethanol, was applied on the shaved mouse abdomen on day 0. Control animals were exposed to vehicle alone. Six days after sensitization, mice were challenged on both sides of both ears by means of epicutaneous application of 20 μL of a 1% OXA solution (Gaspari and Katz, Current Protocols in immunology, John Wiley & Sons (Hoboken, N.J., 2003)). 2,4-Dinitro-1-fluambenzene (DNFB) sensitization was accomplished by the application of 0.5% of the chemical dissolved in 4:1 acetone/olive oil onto the shaved abdomen (days 0 and 1). On day 5, mice were challenged by means of epicutaneous application of 0.2% DNFB on both ears. Ear thickness was measured before and 24 and 48 hours after challenge by using a dial thickness gauge (Mitutoyo, Japan). Mice were killed 48 hours after challenge, and ear tissues were removed for RNA extraction and cytokine message expression, as well as for hematoxylin and eosin staining.\n(§3) Total RNA was extracted from DCs or tissues by using the RNeasy Mini Kit (Qiagen, Inc, Valencia, Calif.), according to the manufacturer's recommendations. Contaminating DNA was removed with a DNA-free kit (Ambion, Inc, Austin, Tex.). Total RNA was spectrophotometrically quantitated. A 1 μg RNA sample was reverse transcribed by using the iScriptTMcDNA Synthesis Kit (Bio-Rad Laboratories, Hercules, Calif.). The cDNA templates were stored at −40° C.\n(§4) PCR was carried out with an iQTM SYBR Green Supermix (Bio-Rad Laboratories) by using an iCycler (Bio-Rad Laboratories), according to the manufacturer's instructions. The sequences for the primers for IFN-γ, IL-4, T-bet, heme oxygenase 1, Nrf2, NQO1, glutathione S-transferase, GCLS, GPx, and β-actin are summarized in Table 1. The final PCR mixture contained 1 μL of cDNA template and 400 nM of the forward and reverse primers in a final volume of 25 μL. […]\n(§5) IFN-γ and IL-4 message levels were measured in the ear tissues that were taken 48 hours after challenge to determine whether the induction of the CHS response is accompanied by polarized T cell differentiation."}, "IL-4 mRNA": {"tested_on": "IL-4 mRNA", "details": "old mice; SFN gavage; 48 hours after DNFB challenge", "description": "as §2, §3, §4, §5"}, "T-bet mRNA": {"tested_on": "T-bet mRNA", "details": "old versus young sensitized animals; SFN gavage; DNFB challenge", "description": "as §2, §3, §4, §5"}, "GATA-3": {"tested_on": "GATA-3", "details": "SFN gavage; DNFB challenge", "description": "as §5"}, "[2]": {"tested_on": "p2Es (NQO1, glutathione S-transferase, γ-GCLS, and GPx) mRNA", "details": "SFN administration versus livers of control animals", "description": "(§6) SFN (9 μmol/d per mouse) in 0.2 mL, of corn oil was administered by means of gavage on consecutive days. The control group received corn oil alone. Pretreatment with SFN or corn oil commenced 5 days before and was carried through until the performance of the antigen challenge (i.e., 11 days total).\nas §3\nas §4, with “μL. Samples were run concurrently with a standard curve prepared from the PCR products. Serial dilutions were performed to obtain appropriate template concentrations.” for “μL.”"}, "[3]": {"details": "SFN administration by gavage", "description": "as §1, §6"}, "BM-DCs from old mice": {"tested_on": "BM-DCs from old mice", "assay": "CHS response by adoptive transfer of DNBS-pulsed BM-DCs treated ex vivo", "type": "in vivo, mouse", "details": "DNFB challenge of young recipients", "description": "For sensitization (day 0), 0.5×10^6 DNBS-treated DCs were injected subcutaneously with 100 μL of saline into the flanks of recipient mice. Five days later, mice were challenged by means of DNFB application to the ear. Mice injected with the same number of unmodified DCs or mock treated and challenged with vehicle alone served as negative controls."}, "NQO1 mRNA": {"tested_on": "NQO1 mRNA", "details": "BM-DCs from old animals; SFN 5 μmol/L for 24 hours; P<0.001", "description": "(§7) FIG. 9. […] A. Total RNA was extracted from CD11c^+ BM-DCs to perform real-time PCR for p2E.\nas §3\n(§8) PCR was carried out with an iQTM SYBR Green Supermix (Bio-Rad Laboratories) by using an iCycler (Bio-Rad Laboratories), according to the manufacturer's instructions. The sequences for the primers for IFN-γ, IL-4, T-bet, heme oxygenase 1, Nrf2, NQO1, glutathione S-transferase, GCLS, GPx, and β-actin are summarized in Table 1. The final PCR mixture contained 1 μL of cDNA template and 400 nM of the forward and reverse primers in a final volume of 25 μL. Samples were run concurrently with a standard curve prepared from the PCR products. Serial dilutions were performed to obtain appropriate template concentrations. B-Actin was used as a reference gene for the recovery of RNA, as well as reverse transcription efficiency. Melting curve analysis was used to confirm specific replicon formation."}, "heme oxygenase 1 mRNA": {"tested_on": "heme oxygenase 1 mRNA", "details": "BM-DCs from old animals; SFN 5 μmol/L for 24 hours; P<0.05", "description": "as §7, §3, §8"}, "γ-GCLS mRNA": {"tested_on": "γ-GCLS mRNA", "details": "BM-DCs from old animals; SFN 5 μmol/L for 24 hours; P<0.05", "description": "as §7, §3, §8"}, "[4]": {"tested_on": "Nrf2-mediated phase II enzyme (p2E) gene expression", "details": "absent in Nrf2-deficient animals; recent studies; cited from earlier work"}, "CD11c+ BM-DCs": {"tested_on": "CD11c+ BM-DCs", "assay": "MBB staining and flow cytometry of cellular thiol in BM-DCs", "details": "P<0.05"}, "OXA-treated BALB/c mice": {"tested_on": "OXA-treated BALB/c mice", "details": "Särnstrand et al.; cited from earlier work"}, "BALB/c mice": {"tested_on": "BALB/c mice", "details": "orally administered 1.6 g/kg, Senaldi et al.; cited from earlier work"}, "cellular proteins": {"tested_on": "cellular proteins", "details": "NAC at the time of TNCB sensitization; Bruchhausen et al.; cited from earlier work"}, "Nrf2": {"tested_on": "Nrf2", "details": "old rats; cited from earlier work"}}, "note": "“Also recorded” adds a separate entry of the source.", "data": [{"smiles": "C[S+]([O-])CCCCN=C=S", "note": "(centres unmarked) [SFN, sulforaphane]", "values": [{"measurement": "ear-swelling response in nonsensitized (control) animals", "setting": "[1]; nonsensitized control animals", "result": "no effect"}, {"measurement": "decrease in lymphocyte infiltration and intercellular edema in ear (hematoxylin and eosin)", "setting": "[1]; old mice, ear histology 48 hours after challenge", "result": "could be reversed"}, {"measurement": "IFN-γ message level in ear tissue", "setting": "IFN-γ mRNA", "result": "significantly increased"}, {"measurement": "IL-4 message level in ear tissue", "setting": "IL-4 mRNA", "result": "not significantly affected"}, {"measurement": "T-bet message level in ear tissue", "setting": "T-bet mRNA", "result": "prevented this decrease to a significant degree"}, {"measurement": "expression of GATA-3", "setting": "GATA-3", "result": "Neither aging nor SFN treatment had an effect"}, {"measurement": "p2E mRNA levels in liver (NQO1, glutathione S-transferase, γ-GCLS, GPx)", "setting": "[2]", "result": "message levels for 3 of the 4 genes were increased"}, {"measurement": "effects on overall well-being or body weight", "setting": "[3]", "result": "Neither the CHS procedure nor SFN administration had any effects"}, {"measurement": "CHS response in recipients of DNBS-pulsed DCs from old animals", "setting": "BM-DCs from old mice; ex vivo SFN treatment of BM-DCs (5 μM for 24 hours)", "result": "could restore the CHS response; also recorded: reverses the age-related decrease in the CHS response"}, {"measurement": "NQO1 mRNA level", "setting": "NQO1 mRNA", "result": "significant upregulation"}, {"measurement": "heme oxygenase 1 mRNA level", "setting": "heme oxygenase 1 mRNA", "result": "significant upregulation"}, {"measurement": "γ-GCLS mRNA level", "setting": "γ-GCLS mRNA", "result": "significant upregulation"}, {"measurement": "Nrf2-mediated phase II enzyme (p2E) gene expression", "setting": "[4]", "result": "significantly activates"}, {"measurement": "increase in cellular thiol levels (MBB staining)", "setting": "CD11c+ BM-DCs; BM-DCs from old animals, SFN 5 μmol/L for 24 hours", "result": 15, "unit": "%"}]}, {"smiles": "CC(=O)N[C@@H](CS)C(=O)O", "note": "[NAC, N-acetylcysteine]", "values": [{"measurement": "CHS response in recipients of DNBS-pulsed DCs from old animals", "setting": "BM-DCs from old mice; ex vivo NAC treatment of BM-DCs (20 mM for 1 hour), washed", "result": "restored the CHS response; also recorded: increases the CHS response; also recorded: reverses the age-related decrease in the CHS response"}, {"measurement": "ear thickness", "setting": "OXA-treated BALB/c mice", "result": "dose-dependent increase"}, {"measurement": "TNCB response", "setting": "BALB/c mice", "result": "reduced the TNCB response"}, {"measurement": "binding of the contact sensitizer TNCB to cellular proteins", "setting": "cellular proteins", "result": "block the binding"}, {"measurement": "increase in cellular thiol content (MBB staining)", "setting": "CD11c+ BM-DCs; BM-DCs, NAC exposure (FIG. 8: 20 mmol/L for 24 hours)", "result": 25, "unit": "%"}]}, {"smiles": "O=C(O)CCCCC1CCSS1", "note": "(stereo not drawn) [α-lipoic acid]", "values": [{"measurement": "nuclear Nrf2 levels, γ-CLC expression and GSH production", "setting": "Nrf2", "result": "increase nuclear Nrf2 levels in parallel with increased γ-CLC expression and GSH production"}]}]}
